Assay results from ChEMBL document CHEMBL3244364, “5,11-dimethyl-2,9-bis(phenylacetyl)-5,11-diazatetracyclo[6.2.2.0(2,7).0(4,9)]dodecane, a potent, novel analgesic” (J Med Chem, 1977).
The source made the active and inactive calls.

Assays:
Rattus norvegicus [1] = assay: Analgesic activity in sc dosed rat assessed as estimated dose to elevate pain reaction threshold to pressure applied to hind paw of to 50 mmHg; assay type: functional
Rattus norvegicus [2] = assay: Analgesic activity in rat assessed as elevate pain reaction threshold to pressure applied to hind paw of to 50 mmHg at 10 mg/kg, iv; assay type: functional, organism-based; design: dose 10 mg/kg
Rattus norvegicus [3] = assay: Analgesic activity in rat assessed as elevate pain reaction threshold to pressure applied to hind paw of to 50 mmHg at 5 mg/kg, iv; assay type: functional, organism-based; design: dose 5 mg/kg
Rattus norvegicus [4] = assay: Ratio of morphine ED50 to compound ED50 for analgesic activity in sc dosed rat; assay type: functional
Rattus norvegicus [5] = species on record: Rattus norvegicus; assay: Toxicity in rat assessed as catatonia; assay type: organism-based; conditions: in vivo
Rattus norvegicus [6] = species on record: Rattus norvegicus; assay: Toxicity in rat assessed as straub tail; assay type: organism-based; conditions: in vivo
Rattus norvegicus [7] = species on record: Rattus norvegicus; assay: Toxicity in rat assessed as exopthalmus; assay type: organism-based; conditions: in vivo
Rattus norvegicus [8] = assay: Analgesic activity in rat assessed as ability to prolong reaction time at 3 mg/kg, sc by tail-flick assay; assay type: functional, organism-based; design: dose 3 mg/kg
Rattus norvegicus [9] = assay: Analgesic activity in rat assessed as ability to prolong reaction time at 3 mg/kg, sc by tail-flick assay in presence of 10 mg/kg, sc naloxone; assay type: functional, organism-based
Rattus norvegicus [10] = assay: Analgesic activity in rat assessed as elevate pain reaction threshold to pressure applied to hind paw of to 50 mmHg at 50 mg/kg, sc; assay type: functional, organism-based; design: dose 50 mg/kg
[11] = Rattus norvegicus, sc, read-out: ED50

In the case of `CN1CC2C3CN(C)C4CC3(C(=O)Cc3ccccc3)C1CC24C(=O)CC1CCCCC1` (configuration not stated), the ED50 (Rattus norvegicus [1]; [11]) is reported as 10.1 mg/kg.

`O=C(Cc1ccccc1)C12CC3NCC1C1CNC2CC31C(=O)Cc1ccccc1` showed an ED50 (Rattus norvegicus [1]; [11]) greater than 81 mg/kg.

Work on `CN1CC2C3CNC4CC3(C(=O)Cc3ccccc3)C1CC42C(=O)Cc1ccccc1` (configuration not stated) yielded an ED50 (Rattus norvegicus [1]; [11]) of 45 mg/kg.

In the case of `CCN1CC2C3CN(CC)C4CC3(C(=O)Cc3ccccc3)C1CC24C(=O)Cc1ccccc1`, the ED50 (Rattus norvegicus [1]; [11]) is reported as 41.1 mg/kg.

Compound `C=CCN1CC2C3CN(CC=C)C4CC3(C(=O)Cc3ccccc3)C1CC24C(=O)Cc1ccccc1` has an ED50 (Rattus norvegicus [1]; [11]) greater than 81 mg/kg.

`CCN1CC2C3CN(C)C4CC3(C(=O)Cc3ccccc3)C1CC24C(=O)Cc1ccccc1` (configuration not stated) was tested, and the ED50 (Rattus norvegicus [1]; [11]) was 29.9 mg/kg.

`C=CCN1CC2C3CN(C)C4CC3(C(=O)Cc3ccccc3)C1CC24C(=O)Cc1ccccc1` (configuration not stated) was tested, and the ED50 (Rattus norvegicus [1]; [11]) was greater than 80 mg/kg and the Activity (Rattus norvegicus [2]) was “inactive”.

`CN1CC2C3CN(C)C4CC3(C(=O)CC3CCCCC3)C1CC24C(=O)CC1CCCCC1` gave an ED50 (Rattus norvegicus [1]; [11]) greater than 81 mg/kg.

For `CC(C)=CCN1CC[C@]2(C)c3cc(O)ccc3C[C@H]1[C@H]2C`, the Activity (Rattus norvegicus [3]) was “Active”.

With `CN1CC2C3CN(C)C4CC3(C(=O)Cc3ccccc3)C1CC24C(=O)Cc1ccccc1` (racemic) [listing 1 of 2 here] the ED50 (Rattus norvegicus [1]) was 1 mg/kg, the “Ratio ED50” value (Rattus norvegicus [4]) was 1.5 and the Activity (Rattus norvegicus [5]) was “Toxic”. The Activity (Rattus norvegicus [6]) was “Toxic” and the Activity (Rattus norvegicus [7]) was “Toxic”.

With `CN1CC2C3CN(C)C4CC3(C(=O)Cc3ccccc3)C1CC24C(=O)Cc1ccccc1` (racemic) [listing 2 of 2 here] the Activity (Rattus norvegicus [8]) was “Active”, the Activity (Rattus norvegicus [9]) was “inactive” and the Activity (Rattus norvegicus [10]) was “Active”.

For `CN1CC2C3CN(C)C4CC3(C(=O)Cc3ccccc3)C1CC24C(=O)Cc1ccccc1` (single isomer, unassigned; (+)), the ED50 (Rattus norvegicus [1]) was greater than 80 mg/kg.

`CN1CC2C3CN(C)C4CC3(C(=O)Cc3ccccc3)C1CC24C(=O)Cc1ccccc1` (single isomer, unassigned; (-)) was tested, and the ED50 (Rattus norvegicus [1]) was 0.6 mg/kg and the “Ratio ED50” value (Rattus norvegicus [4]) was 3.

`CN1CC[C@]23c4c5ccc(O)c4O[C@H]2[C@@H](O)C=C[C@H]3[C@H]1C5` [MORPHINE] was tested, and the ED50 (Rattus norvegicus [1]; [11]) was 1.5 mg/kg.
